According to article PMC3299084 (Journal of Medicinal Chemistry, 2012):
Peptide text beside a SMILES is read from it. * marks the point of attachment. X1 = CC(=O)O[C@H]1C(=O)[C@@]2(C)[C@H]([C@H](OC(=O)c3ccccc3)[C@]3(O)C[C@H](OC(=O)[C@H](OC(=O)COCC(=O)OCCCCCCn4cc(CCCC(=O)*)nn4)[C@@H](NC(=O)c4ccccc4)c4ccccc4)C(C)=C1C3(C)C)[C@]1(OC(C)=O)CO[C@@H]1C[C@@H]2O

Columns and labels:
[1] = system: PC3 cells; assay: ATP-Lite analysis of cell viability; type: cell-based, human; details: 72 hours, 10 nM, EphA2 overexpressing PC3
[2] = biological target: T1, EphA2 (Homo sapiens, UniProt P29317); assay: Quantum dot internalization into lysosomes; details: PC3 prostate cancer cells (highly EphA2 expressing), 100 μM
T1 sequence (P29317 24-976): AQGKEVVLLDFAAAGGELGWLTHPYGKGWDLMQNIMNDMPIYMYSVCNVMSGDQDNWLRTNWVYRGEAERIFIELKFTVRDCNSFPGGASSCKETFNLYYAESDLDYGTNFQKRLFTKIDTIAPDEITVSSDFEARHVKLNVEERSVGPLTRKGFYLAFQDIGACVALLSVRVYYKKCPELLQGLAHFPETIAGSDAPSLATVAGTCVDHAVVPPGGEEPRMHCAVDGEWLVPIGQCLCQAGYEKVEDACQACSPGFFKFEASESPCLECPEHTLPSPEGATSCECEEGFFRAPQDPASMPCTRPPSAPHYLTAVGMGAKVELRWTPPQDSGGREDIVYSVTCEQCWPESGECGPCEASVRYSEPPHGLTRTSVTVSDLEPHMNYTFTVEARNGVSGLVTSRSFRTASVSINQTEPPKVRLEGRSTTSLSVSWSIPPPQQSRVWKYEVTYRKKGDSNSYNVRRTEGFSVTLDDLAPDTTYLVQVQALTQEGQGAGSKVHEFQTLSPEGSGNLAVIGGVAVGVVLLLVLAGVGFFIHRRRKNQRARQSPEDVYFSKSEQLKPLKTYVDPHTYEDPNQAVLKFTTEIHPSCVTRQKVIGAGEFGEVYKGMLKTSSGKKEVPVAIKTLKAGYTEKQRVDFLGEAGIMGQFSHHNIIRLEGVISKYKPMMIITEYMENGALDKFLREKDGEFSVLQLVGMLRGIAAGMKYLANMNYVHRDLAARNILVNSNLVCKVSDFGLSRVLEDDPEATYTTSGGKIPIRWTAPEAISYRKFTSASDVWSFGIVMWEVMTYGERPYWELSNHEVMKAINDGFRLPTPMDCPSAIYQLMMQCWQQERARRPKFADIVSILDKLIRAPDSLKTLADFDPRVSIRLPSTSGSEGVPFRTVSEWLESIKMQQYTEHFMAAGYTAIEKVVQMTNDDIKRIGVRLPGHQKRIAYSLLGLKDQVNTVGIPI

[3] = biological target: T1, EphA2; assay: EphA2 internalization into lysosomes, confocal imaging; type: cell-based; details: PC3 cells, 2 h, 100 μM conjugate or 0.2 μg/mL ephrin-A1 Fc
[4] = biological target: EphA2 Fc (Homo sapiens, UniProt P29317); assay: ELISA displacement of ephrin-A5 AP from immobilized EphA2 Fc; details: ephrin-A5 AP binding to EphA2 Fc
Chain of EphA2 Fc (P29317 24-537 limits assumed): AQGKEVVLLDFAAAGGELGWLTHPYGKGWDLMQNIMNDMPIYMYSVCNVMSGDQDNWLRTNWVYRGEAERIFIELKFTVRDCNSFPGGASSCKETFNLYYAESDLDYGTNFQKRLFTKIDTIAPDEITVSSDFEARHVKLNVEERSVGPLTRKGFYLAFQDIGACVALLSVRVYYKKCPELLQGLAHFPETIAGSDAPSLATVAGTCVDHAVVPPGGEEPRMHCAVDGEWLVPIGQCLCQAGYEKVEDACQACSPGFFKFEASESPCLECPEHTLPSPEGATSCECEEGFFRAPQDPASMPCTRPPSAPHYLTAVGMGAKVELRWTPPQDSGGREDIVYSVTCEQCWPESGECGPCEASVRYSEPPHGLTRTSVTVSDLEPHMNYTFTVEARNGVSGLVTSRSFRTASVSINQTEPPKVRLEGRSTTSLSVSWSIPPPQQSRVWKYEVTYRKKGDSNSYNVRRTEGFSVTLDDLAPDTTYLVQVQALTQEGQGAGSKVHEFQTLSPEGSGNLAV

[5] = Bio-distribution: PTX levels in tumor and plasma by LC-MS/MS; type: in vivo, mice
[6] = system: PC3 tumor xenografts; details: intravenous, twice weekly for 3 weeks
[7] = Microsomal stability; type: in vitro ADME; details: rat, liver microsomes, pH 7.2
[8] = Plasma stability; type: in vitro ADME; details: rat, plasma (fresh)
[9] = system: PC3 cells; assay: Release of native paclitaxel in the presence of PC3 cells; type: cell-based, human; details: in the presence of PC3 cells (data not shown)

Compound	cell death / viability of PC3 cells [1]	Qdot uptake / targeting of cells [2]	EphA2 internalization into lysosomes [3]	displacement of ephrin-A5 [4]	concentration at 30 min ([5]; SCID-beige, mouse, plasma, intravenous, 25 mg/kg) [ng/mL]	signs of toxicity [6]	mouse body weights ([6]; versus vehicle control)	half-life at 4 μM [7] [min]	half-life at 1 μM [8] [min]	Plasma levels of PTX ([5]; 30 min after single equimolar intravenous dose (PTX 25 mg/kg)) [ng/mL]	time to nearly complete release of native paclitaxel [9]
CSCC[C@H](NC(=O)[C@H](C)NC(=O)[C@H](CCSC)NC(=O)[C@H](CO)NC(=O)[C@@H]1CCCN1C(=O)[C@H](Cc1ccc(O)cc1)NC(=O)[C@@H](N)CC(=O)O)C(=O)N[C@@H](Cc1ccc(O)cc1)C(=O)N[C@@H](CO)C(=O)N1CCC[C@H]1C(=O)N[C@@H](CO)C(=O)N[C@H](C(=O)N[C@@H](CCCCNC(=O)CCCc1cn(CCCCCCOC(=O)COCC(=O)O[C@@H](C(=O)O[C@H]2C[C@@]3(O)[C@@H](OC(=O)c4ccccc4)[C@@H]4[C@]5(OC(C)=O)CO[C@@H]5C[C@H](O)[C@@]4(C)C(=O)[C@H](OC(C)=O)C(=C2C)C3(C)C)[C@@H](NC(=O)c2ccccc2)c2ccccc2)nn1)C(=O)O)C(C)C [DYP-PTX, DYPSMAMYSPSV- K*-PTX] (H-DYPSMAMYSPSVK(X1)-OH; N-terminus and C-terminus assumed)	no significant cell killing	does not target PC3 cells	does not trigger EphA2 internalization	neither of the control compounds, DYP motif nor DYP-PTX conjugate, show any detectable displacement of ephrin-A5							
CC(=O)O[C@H]1C(=O)[C@@]2(C)[C@H]([C@H](OC(=O)c3ccccc3)[C@]3(O)C[C@H](OC(=O)[C@H](O)[C@@H](NC(=O)c4ccccc4)c4ccccc4)C(C)=C1C3(C)C)[C@]1(OC(C)=O)CO[C@@H]1C[C@@H]2O [PTX, paclitaxel, reference compound]					771 ± 585						
CSCC[C@H](NC(=O)[C@H](CCSC)NC(=O)[C@@H]1CCCN1C(=O)[C@@H](NC(=O)[C@H](CO)NC(=O)[C@H](CC(=O)O)NC(=O)[C@@H]1CCCN1C(=O)[C@H](Cc1ccc(O)cc1)NC(=O)[C@H](C)NC(=O)[C@H](CO)NC(=O)[C@@H](N)Cc1ccc(O)cc1)C(C)C)C(=O)N[C@@H](CO)C(=O)N[C@@H](CCCCNC(=O)CCCc1cn(CCCCCCOC(=O)COCC(=O)O[C@@H](C(=O)O[C@H]2C[C@@]3(O)[C@@H](OC(=O)c4ccccc4)[C@@H]4[C@]5(OC(C)=O)CO[C@@H]5C[C@H](O)[C@@]4(C)C(=O)[C@H](OC(C)=O)C(=C2C)C3(C)C)[C@@H](NC(=O)c2ccccc2)c2ccccc2)nn1)C(=O)O [YSA-PTX]	retained the ability of paclitaxel to induce cell death at low nanomolar concentrations					no adverse signs of toxicity	not affected	23	43	998 ± 742	about 60 minutes
